Results from US10787483B2, “Antimicrobial peptidomimetics” (Agency for Science, Technology and Research, priority 2014, dated 2020).
Values after ≈ are worked out from the molar mass of the structure shown. Where two headings read alike, the source gives them in different places.

Experiments:
S. aureus (ATCC 29213) [1] = test: MIC determination by broth microdilution vs. S. aureus (ATCC 29213); type: cell-based; conditions: Staphylococcus aureus
Description: (§1) Using a sterile loop, 3 to 5 isolated colonies of bacteria of the same morphological appearance are selected from the overnight agar plate. The colonies are transferred into a conical flask containing 5 mL of liquid medium (i.e. Mueller-Hinton broth). The broth is incubated at 37° C. in a shaker at 220 rpm until it reaches a turbidity that is equal to the turbidity of a McFarland Standard 0.5 (correspond to 1×10^8 cfu/mL). This culture growth step will require 1-2 hours depending on the bacteria tested.
(§2) During this pause period, an antibacterial dilution is prepared. Therefore an antibacterial stock solution is diluted in Mueller-Hinton broth. The concentration of DMSO is kept at 5%. 100 μL of the antibacterial solution are dispensed into the first well of a row. 50 μL of medium containing 0.5% of DMSO are dispensed to the rest of the wells. […]
(§3) The bacterial suspension prepared above is mixed thoroughly, and diluted by a factor of 1:100 in the sterile medium. […] The colonies on the agar plate are counted the next day to verify that the right number of cfu was inoculated. The plate is agitated in the SpectraMax spectrophotometer for 90 s and the OD600 for all the wells in the plate is recorded.

S. aureus (RN 4220) = test: MIC determination by broth microdilution vs. S. aureus (RN 4220); type: cell-based; conditions: Staphylococcus aureus
Description: as §1, §2, §3

MRSA (ATCC 33591) = test: MIC determination by broth microdilution vs. MRSA (ATCC 33591); type: cell-based, Staphylococcus aureus; conditions: for MIC: Staphylococcus aureus
Description: as §1
During this pause period, an antibacterial dilution is prepared. Therefore an antibacterial stock solution is diluted in Mueller-Hinton broth. The concentration of DMSO is kept at 5%. 100 μL of the antibacterial solution are dispensed into the first well of a row. 50 μL of medium containing 0.5% of DMSO are dispensed to the rest of the wells. A 2-fold serial dilution is achieved by transferring 50 μL from the first well (containing the highest concentration of antibacterial) into the second well, and continuing like this until the 10th well in the row. The final 50 μL are discarded so that every well has 50 μL of each antibacterial dilution.
The 11th well was used as the growth control well (medium with bacterial inoculums, no antibacterial) while the 12th well was the sterility control well (medium only).
The bacterial suspension prepared above is mixed thoroughly, and diluted by a factor of 1:100 in the sterile medium. Each well and the growth control well is inoculated with 50 μL of the bacterial suspension. […] To the sterility control well 50 μL of sterile medium are added in place of the bacterial suspension. 10 μL aliquot from the growth control well is removed immediately after inoculating the plate and pipetted it into a sterile Eppendorf tube holding 990 μL of sterile broth. It is mixed well by vortexing. This suspension is further diluted (1:10) by pipetting 100 μL into 900 μL of sterile broth and mixing it well. 100 μL of each of the two dilutions are plated onto two different antibacterial-free agar plates. A sterile cell spreader is used to spread the liquid. Then the plate is sealed with a transparent adhesive film. The microtiter plate and agar plates are incubated at 37° C. for 16-20 hours or until satisfactory growth is obtained. The colonies on the agar plate are counted the next day to verify that the right number of cfu was inoculated. The plate is agitated in the SpectraMax spectrophotometer for 90 s and the OD600 for all the wells in the plate is recorded.

[2] = system: Strep. pneumoniae (ATCC 49619); test: MIC determination by broth microdilution vs. Strep. pneumoniae (ATCC 49619); type: cell-based, Streptococcus pneumoniae
Description: as §1, §2, §3

[3] = system: Strep. pyogenes (ARC 838); test: MIC determination by broth microdilution vs. Strep. pyogenes (ARC 838); type: cell-based; conditions: Streptococcus pyogenes
Description: as §1, §2, §3

E. faecalis = test: Antibacterial activity on E. faecalis; type: cell-based
Description: as §1, §2, §3

S. aureus (ATCC 29213) [4] = test: Bactericidal activity at MIC after dilution of the antibacterial (FIG. 2); type: cell-based, Staphylococcus aureus; conditions: treatment at its MIC
MRSA ATCC-BAA-1680 = test: MIC, panel of MRSA strains: ATCC-BAA-1680; type: cell-based; conditions: Staphylococcus aureus; MRSA strain ATCC-BAA-1680
Description: as §1, §2
as §3, with “recorded. […]” for “recorded.”

MRSA ATCC-1720 = test: MIC, panel of MRSA strains: ATCC-1720; type: cell-based; conditions: Staphylococcus aureus; MRSA strain ATCC-1720
Description: as §1, §2
as §3, with “recorded. […]” for “recorded.”

MRSA ATCC-BAA-1681 = test: MIC, panel of MRSA strains: ATCC-BAA-1681; type: cell-based; conditions: Staphylococcus aureus; MRSA strain ATCC-BAA-1681
Description: as §1, §2
as §3, with “recorded. […]” for “recorded.”

MRSA ATCC-BAA-44 = test: MIC, panel of MRSA strains: ATCC-BAA-44; type: cell-based; conditions: Staphylococcus aureus; MRSA strain ATCC-BAA-44
Description: as §1, §2
as §3, with “recorded. […]” for “recorded.”

MRSA ATCC-700699 = test: MIC, panel of MRSA strains: ATCC-700699; type: cell-based; conditions: Staphylococcus aureus; MRSA strain ATCC-700699
Description: as §1, §2
as §3, with “recorded. […]” for “recorded.”

MRSA ATCC-2094 = test: MIC, panel of MRSA strains: ATCC-2094; type: cell-based; conditions: Staphylococcus aureus; MRSA strain ATCC-2094
Description: as §1, §2
as §3, with “recorded. […]” for “recorded.”

SMILES	MIC (S. aureus (ATCC 29213) [1]; ATCC 29123 / ATCC 29213, S. aureus (ATCC 29123) as printed, read-out: MIC value) [µM]	MIC (S. aureus (ATCC 29213) [1]; ATCC29213, S. aureus (ATCC 29213), read-out: MIC(μM) (ATCC 29213)) [µM]	MIC (S. aureus (RN 4220)) [µM]	MIC value compared with Linezolid and Daptomycin (MRSA (ATCC 33591); S. aureus tests (ATCC 33591, RN 4220, ATCC 29123))	MIC (MRSA (ATCC 33591); MRSA (ATCC 33591), read-out: MIC value) [µM]	MIC (MRSA (ATCC 33591); MRSA (ATCC 33591), read-out: MIC(μM) (ATCC 33591)) [µM]	MIC compared with Daptomycin ([2]; Strep. tests (Strep. pneumoniae ATCC 49619, Strep. pyogenes ARC 838))	MIC ([2]; Streptococcus pneumoniae, ATCC49619, Strep. pneumoniae (ATCC 49619)) [µM]	MIC [3] [µM]	activity on E. faecalis (E. faecalis)	mode of action (regrowth after dilution of the antibacterial) (S. aureus (ATCC 29213) [4])	MIC (MRSA ATCC-BAA-1680) [µM]	MIC (MRSA ATCC-1720) [µM]	MIC (MRSA ATCC-BAA-1681) [µM]	MIC (MRSA (ATCC 33591); MRSA (ATCC 33591), read-out: MIC) [µM]	MIC (MRSA (ATCC 33591); MRSA strain ATCC-33591, read-out: MIC values) [µM]	MIC (MRSA ATCC-BAA-44) [µM]	MIC (MRSA ATCC-700699) [µM]	MIC (MRSA ATCC-2094) [µM]
N=C(N)NCCCCNC(=O)[C@H](Cc1ccc(-c2ccccc2)cc1)NC(=O)[C@H](CCCNC(=N)N)NC(=O)[C@@H](N)Cc1ccc(-c2ccccc2)cc1 [Compound 1a, Bip-Arg-Bip-agmantine]	3.12 (≈ 2.29 µg/mL)	3.12 (≈ 2.29 µg/mL)	3.12 (≈ 2.29 µg/mL)	lower MIC value	3.12 (≈ 2.29 µg/mL)	3.12 (≈ 2.29 µg/mL)	at least improvement over Daptomycin	6.25 (≈ 4.58 µg/mL)	6.25 (≈ 4.58 µg/mL)	showed activity	bactericidal mode of action	–	–	–	–	–	–	–	–
N=C(N)NCCCCNC(=O)[C@@H](Cc1ccc(-c2ccccc2)cc1)NC(=O)[C@@H](CCCNC(=N)N)NC(=O)[C@H](N)Cc1ccc(-c2ccccc2)cc1 [Compound (A)]	–	–	–	–	–	–	–	–	–	–	–	1.56 (≈ 1.15 µg/mL)	3.12 (≈ 2.29 µg/mL)	3.12 (≈ 2.29 µg/mL)	1.56 (≈ 1.14 µg/mL)	1.56 (≈ 1.15 µg/mL)	3.12 (≈ 2.29 µg/mL)	3.12 (≈ 2.29 µg/mL)	3.12 (≈ 2.29 µg/mL)
